Test results as given in patent publication US5576319A, “Pyrrolo-pyridine derivatives” (Merck, Sharp & Dohme Ltd., priority 1994, dated 1996).
Read-outs that look alike come from different tables or passages of the source.

Key:
[1] = target: T1, human dopamine D4 receptor subtype (Homo sapiens, UniProt P21917); experiment: [3H]-Spiperone binding, displacement from human dopamine D4 receptor subtype expressed in clonal cell lines
T1 sequence (P21917 1-419): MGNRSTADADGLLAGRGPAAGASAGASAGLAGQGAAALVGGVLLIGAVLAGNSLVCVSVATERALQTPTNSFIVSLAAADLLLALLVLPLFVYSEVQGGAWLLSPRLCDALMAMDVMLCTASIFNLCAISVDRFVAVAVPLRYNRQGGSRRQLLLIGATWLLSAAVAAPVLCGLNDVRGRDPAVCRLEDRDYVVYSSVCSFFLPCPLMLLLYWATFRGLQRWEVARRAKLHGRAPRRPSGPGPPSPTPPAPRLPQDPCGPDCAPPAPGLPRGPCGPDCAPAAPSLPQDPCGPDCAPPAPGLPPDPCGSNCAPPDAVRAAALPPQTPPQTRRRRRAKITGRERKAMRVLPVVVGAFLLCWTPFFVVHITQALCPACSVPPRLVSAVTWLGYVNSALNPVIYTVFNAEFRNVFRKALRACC

[2] = target: T2, human dopamine D2 receptor subtype (Homo sapiens, UniProt P14416); experiment: [3H]-Spiperone binding, displacement from human dopamine D2 receptor subtype expressed in clonal cell lines
T2 construct: expressed in transfected cells

[3] = tested on: rats; experiment: Sedation: spontaneous motor activity of rats in novel cages with photocells (number of cage crossings); assay type: in vivo; conditions: rat
Excerpt: Representative compounds according to the invention have been tested for their effects on spontaneous motor activity occasioned by placing rats in novel cages equipped with photocells in order to determine the number of cage crossings. This is an art-recognised model of the sedation potential of a given test compound.

[4] = tested on: rat; experiment: Extrapyramidal disorders: apomorphine-induced stereotypy in the rat; assay type: in vivo
Excerpt: 2. Extrapyramidal Disorders
Representative compounds according to the invention have been tested for their effect on apomorphine-induced stereotypy in the rat. This is an art-recognised model of the potential to induce extrapyramidal side-effects.

T2 sequence (P14416 whole entry): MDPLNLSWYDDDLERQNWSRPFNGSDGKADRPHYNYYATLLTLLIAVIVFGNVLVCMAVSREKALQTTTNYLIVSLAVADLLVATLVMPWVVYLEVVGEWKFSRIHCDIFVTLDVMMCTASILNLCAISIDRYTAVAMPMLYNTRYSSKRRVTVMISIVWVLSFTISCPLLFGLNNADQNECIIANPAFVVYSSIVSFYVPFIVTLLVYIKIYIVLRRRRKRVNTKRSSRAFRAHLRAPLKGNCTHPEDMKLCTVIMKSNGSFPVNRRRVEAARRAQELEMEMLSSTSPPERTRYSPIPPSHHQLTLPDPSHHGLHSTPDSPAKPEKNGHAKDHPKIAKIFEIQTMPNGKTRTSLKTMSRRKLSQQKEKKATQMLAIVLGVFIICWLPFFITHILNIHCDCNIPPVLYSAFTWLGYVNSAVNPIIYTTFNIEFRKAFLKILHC

`COc1ccc(N2CCN(Cc3c[nH]c4ncccc34)CC2)cc1` [Example 2, 3-(4-[4-Methoxyphenyl]piperazin-1-yl)methyl-1H-pyrrolo[2,3-b]pyridine] was tested, and the Ki ([1]; human D4, clonal cell line membranes, 0.2 nM [3H]-spiperone) was 0.0013 µM, the “D4 :D2 ratio” value ([1]; ratio of Ki values, selectivity for D4 over D2, 60 min) was “greater than 1150” and the Ki ([2]; human D2, clonal cell line membranes, 0.2 nM [3H]-spiperone, read-out: Ki value for the D2 subtype) was greater than 1.5 µM.

With `Clc1ccc(N2CCN(Cc3c[nH]c4ncccc34)CC2)cc1` [Example 5, 3-(4-[4-Chlorophenyl]piperazin-1-yl)methyl-1H-pyrrolo[2,3-b]pyridine] the Ki [2] was 0.86 µM, the “sedation (spontaneous motor activity)” value ([3]; doses of up to 10-30 mg/kg) was “no evidence for sedation” and the “potential to induce extrapyramidal side-effects (apomorphine-induced stereotypy)” value ([4]; doses up to 1.0 mg/kg) was “no potential to induce the extrapyramidal side-effects”.

For `O=C(CCCN1CCC(O)(c2ccc(Cl)cc2)CC1)c1ccc(F)cc1` [haloperidol, reference compound], the “sedation (spontaneous motor activity)” value ([3]; dose of 1 mg/kg) was “marked sedation” and the “potential to elicit extrapyramidal side-effects (apomorphine-induced stereotypy)” value ([4]; doses of 0.5 and 1.0 mg/kg) was “significant potential to elicit extrapyramidal side-effects”.
